Some results are limits rather than exact numbers.

T1 sequence (P09874 whole entry): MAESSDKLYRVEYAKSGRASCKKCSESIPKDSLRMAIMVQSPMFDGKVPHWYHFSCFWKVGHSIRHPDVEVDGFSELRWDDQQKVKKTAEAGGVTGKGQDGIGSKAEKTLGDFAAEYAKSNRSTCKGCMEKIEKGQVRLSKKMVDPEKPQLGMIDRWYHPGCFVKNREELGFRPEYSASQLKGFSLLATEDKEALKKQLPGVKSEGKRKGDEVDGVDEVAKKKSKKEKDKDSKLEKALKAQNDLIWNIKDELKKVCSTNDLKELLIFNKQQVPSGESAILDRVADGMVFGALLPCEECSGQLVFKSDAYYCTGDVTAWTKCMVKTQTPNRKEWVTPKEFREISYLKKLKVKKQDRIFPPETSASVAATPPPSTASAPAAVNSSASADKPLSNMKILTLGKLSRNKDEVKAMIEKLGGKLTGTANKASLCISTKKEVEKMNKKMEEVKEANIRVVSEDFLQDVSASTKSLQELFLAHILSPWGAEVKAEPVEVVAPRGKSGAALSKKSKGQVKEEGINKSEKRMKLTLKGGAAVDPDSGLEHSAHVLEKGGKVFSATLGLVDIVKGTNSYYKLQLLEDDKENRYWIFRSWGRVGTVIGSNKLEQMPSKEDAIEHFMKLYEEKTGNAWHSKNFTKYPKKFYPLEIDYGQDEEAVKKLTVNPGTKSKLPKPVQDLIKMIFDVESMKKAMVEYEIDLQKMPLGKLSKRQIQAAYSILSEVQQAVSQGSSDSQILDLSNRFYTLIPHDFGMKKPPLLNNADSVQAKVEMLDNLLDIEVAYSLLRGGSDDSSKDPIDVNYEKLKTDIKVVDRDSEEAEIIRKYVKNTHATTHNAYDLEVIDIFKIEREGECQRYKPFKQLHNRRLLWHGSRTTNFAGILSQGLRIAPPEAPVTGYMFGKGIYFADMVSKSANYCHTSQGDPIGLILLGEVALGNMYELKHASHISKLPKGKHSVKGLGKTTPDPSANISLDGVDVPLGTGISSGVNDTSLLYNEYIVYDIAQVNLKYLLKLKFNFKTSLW

One data set concerns the target T1, PARP-1 enzyme (Homo sapiens, UniProt P09874).
T1 construct: made in house
Put plainly: In vitro filtration assay for PARP-1 inhibitory activity. In kind it is biochemical. Conditions: nicked DNA activated PARP-1, [32P]-NAD, histones; read-out: In vitro filtration assay pIC50 (converted). On the procedure:
In Vitro Filtration Assay for PARP-1 Inhibitory Activity
Compounds of the present invention were tested in an in vitro filtration assay assessing PARP-1 activity (triggered in the presence of nicked DNA) by means of its histone poly (ADP-ribosyl)ation activity using [^32P]-NAD as ADP-ribosyl donor. The radioactive ribosylated histones were precipitated by trichloroacetic acid (TCA) in 96-well filterplates and the incorporated [^32P] measured using a scintillation counter A mixture of histones (stock solution: 5 mg/ml in H2O), NAD^+ (stock solution: 100 mM in H2O), and [^32P]-NAD^+ in incubation buffer (50 mM Tris/HCl, pH 8; 0.2 mM DTT; 4 mM MgCl2) was made. A mixture of the PARP-1 enzyme (5-10 μg/ml) and nicked DNA was also made. The nicked DNA was prepared as described in the in vitro SPA for PARP-1 inhibitory activity. Seventy-five μl of the PARP-1 enzyme/DNA mixture together with 1 μl of compound in DMSO and 25 μl of histones-NAD^+/[^32P]-NAD^+ mixture was added per well of a 96-well filterplate (0.45 μm, supplier Millipore). The final concentrations in the incubation mixture were 2 μg/ml for the histones, 0.1 mM for the NAD^+, 200 μM (0.5 μC) for the [^32P]-NAD^+ and 2 μg/ml for the nicked DNA. Plates were incubated for 15 min. at room temperature and the reaction was terminated by the addition of 10 μl ice cold 100% TCA followed by the addition of 10 μl ice-cold BSA solution (1% in H2O). The protein fraction was allowed to precipitate for 10 min. at 4° C. and plates were vacuum filtered. The plates were subsequently washed with, for each well, 1 ml of 10% ice cold TCA, 1 ml of 5% ice cold TCA and 1 ml of 5% TCA at room temperature. Finally 100 μl of scintillation solution (Microscint 40, Packard) was added to each well and the plates were transferred to a TopCountNXT™ (supplier: Packard) for scintillation counting and values were expressed as counts per minute (cpm). For each experiment, controls (containing PARP-1 enzyme and DMSO without compound), a blank incubation (containing DMSO but no PARP-1 enzyme or compound) and samples (containing PARP-1 enzyme and compound dissolved in DMSO) were run in parallel. All compounds tested were dissolved and eventually further diluted in DMSO. In first instance, compounds were tested at a concentration of 10^−5M. […] In each test, the blank value was subtracted from both the control and the sample values. The control sample represented maximal PARP-1 enzyme activity. For each sample, the amount of cpm was expressed as a percentage of the mean cpm value of the controls. When appropriate, IC50-values (concentration of the drug, needed to reduce the PARP-1 enzyme activity to 50% of the control) were computed using linear interpolation between the experimental points just above and below the 50% level. Herein the effects of test compounds are expressed as pIC50 (the negative log value of the IC50-value). As a reference compound, 4-amino-1,8-naphthalimide was included to validate the filtration assay.
Take `CCc1cc2cc(C(c3cccs3)N3CCC(NCCOC)CC3)ccc2[nH]c1=O` (stereo not drawn) [Co. No. 12]: the IC50 is 2270 nM.

Take `CCc1cc2cc(C(CC(C)C)N3CCC(=O)CC3)ccc2[nH]c1=O` (stereo not drawn) [Co. No. 16]: the IC50 was 1840 nM. Still for that read-out and setting: with `CCc1cc2cc(C(SCCN(C)C)C3CCCCC3)ccc2[nH]c1=O` (stereo not drawn) [Co. No. 20] the figure was 1840 nM. Same read-out and setting: with `CCc1cc2cc(C(=O)CN3CCOCC3)ccc2[nH]c1=O` [Co. No. 36] the figure was 2610 nM; with `CCc1cc2cc([C@@H](NCCN(C)C)C3CCCCC3)ccc2[nH]c1=O` [Co. No. 29], 5420 nM; with `CCc1cc2cc([C@@H](C3CCCCC3)N3CCN(CCOC)CC3)ccc2[nH]c1=O` [Co. No. 30], 9180 nM.

`CCc1cc2cc(C(C3CCCCC3)N3CCC(O)CC3)ccc2[nH]c1=O` (stereo not drawn) [Co. No. 34]: the IC50 was 2430 nM. `CCc1cc2cc(C(c3cccnc3)N3CCC(=O)CC3)ccc2[nH]c1=O` (stereo not drawn) [Co. No. 22]: the IC50 was 1180 nM. Turning to `CCc1cc2cc(C(C3CC=CCC3)N3CCC(=O)CC3)ccc2[nH]c1=O` (stereo not drawn) [Co. No. 24], the IC50 was 1330 nM.

System in another data set: not given
Assay: not given
Details: not given
As a reminder, the melting point is the temperature of the solid-liquid transition. The molecule `CCOC(=O)C1CCN(C(C)Cc2ccc3[nH]c(=O)c(CC)nc3c2)CC1` (stereo not drawn) [Co. No. 3] returned a melting point of 163 °C. Same read-out and setting: with `CCc1cc2cc(CN3CCN(Cc4ccccc4)CC3)ccc2[nH]c1=O` [Co. No. 7] the figure was 194 °C.

The target in a further data set is T1, PARP-1 enzyme. Description: In vitro Scintillation Proximity Assay (SPA) for PARP-1 inhibitory activity. In kind it is biochemical. The conditions noted are these: nicked DNA activated PARP-1, [3H]-NAD+, biotinylated histones; read-out: In vitro SPA pIC50 (converted). Here is the method:
Pharmacological Example In Vitro Scintillation Proximity Assay (SPA) for PARP-1 Inhibitory Activity
Compounds of the present invention were tested in an in vitro assay based on SPA technology (proprietary to Amersham Pharmacia Biotech).
In principle, the assay relies upon the well established SPA technology for the detection of poly(ADP-ribosyl)ation of biotinylated target proteins, i.e histones. This ribosylation is induced using nicked DNA activated PARP-1 enzyme and [^3H]-nicotinamide adenine dinucleotide ([^3H]-NAD^+) as ADP-ribosyl donor.
As inducer of PARP-1 enzyme activity, nicked DNA was prepared. For this, 25 mg of DNA (supplier: Sigma) was dissolved in 25 ml DNAse buffer (10 mM Tris-HCl, pH 7.4; 0.5 mg/ml Bovine Serum Albumine (BSA); 5 mM MgCl2.6H2O and 1 mM KCl) to which 50 μl DNAse solution (1 mg/ml in 0.15 M NaCl) was added. After an incubation of 90 min. at 37° C., the reaction was terminated by adding 1.45 g NaCl, followed by a further incubation at 58° C. for 15 min. The reaction mixture was cooled on ice and dialysed at 4° C. for respectively 1.5 and 2 hours against 1.5 l of 0.2 M KCl, and twice against 1.5 l of 0.01 M KCl for 1.5 and 2 h respectively. The mixture was aliquoted and stored at −20° C. Histones (1 mg/ml, type II-A, supplier: Sigma) were biotinylated using the biotinylation kit of Amersham and stored aliquoted at −20° C. A stock solution of 100 mg/ml SPA poly(vinyl toluene) (PVT) beads (supplier: Amersham) was made in PBS. A stock solution of [^3H]-NAD^+ was made by adding 120 μl of [^3H]-NAD^+ (0.1 mCi/ml, supplier: NEN) to 6 ml incubation buffer (50 mM Tris/HCl, pH 8; 0.2 mM DTT; 4 mM MgCl2). A solution of 4 mM NAD^+ (supplier: Roche) was made in incubation buffer (from a 100 mM stock solution in water stored at −20° C.). The PARP-1 enzyme was produced using art known techniques, i.e. cloning and expression of the protein starting from human liver cDNA. Information concerning the used protein sequence of the PARP-1 enzyme including literature references can be found in the Swiss-Prot database under primary accession number P09874. Biotinylated histones and PVT-SPA beads were mixed and pre-incubated for 30 min. at room temperature. PARP-1 enzyme (concentration was lot dependent) was mixed with the nicked DNA and the mixture was pre-incubated for 30 min. at 4° C. Equal parts of this histones/PVT-SPA beads solution and PARP-1 enzyme/DNA solution were mixed and 75 μl of this mixture together with 1 μl of compound in DMSO and 25 μl of [^3H]-NAD^+ was added per well into a 96-well microtiterplate. The final concentrations in the incubation mixture were 2 μg/ml for the biotinylated histones, 2 mg/ml for the PVT-SPA beads, 2 μg/ml for the nicked DNA and between 5-10 μg/ml for the PARP-1 enzyme. After incubation of the mixture for 15 min. at room temperature, the reaction was terminated by adding 100 μl of 4 mM NAD^+ in incubation buffer (final concentration 2 mM) and plates were mixed.
The beads were allowed to sediment for at least 15 min. and plates transferred to a TopCountNXT™ (Packard) for scintillation counting, values were expressed as counts per minute (cpm). For each experiment, controls (containing PARP-1 enzyme and DMSO without compound), a blank incubation (containing DMSO but no PARP-1 enzyme or compound) and samples (containing PARP-1 enzyme and compound dissolved in DMSO) were run in parallel. All compounds tested were dissolved and eventually further diluted in DMSO. […] In each test, the blank value was subtracted from both the control and the sample values. The control sample represented maximal PARP-1 enzyme activity. For each sample, the amount of cpm was expressed as a percentage of the mean cpm value of the controls. When appropriate, IC50-values (concentration of the drug, needed to reduce the PARP-1 enzyme activity to 50% of the control) were computed using linear interpolation between the experimental points just above and below the 50% level. […]
As for `CCOC(=O)C1CCN(C(C)Cc2ccc3[nH]c(=O)c(CC)nc3c2)CC1` (stereo not drawn) [Co. No. 3], the IC50 was 861 nM. On the same count and under the same terms, for `CCc1cc2cc(C(C3CCCCC3)N3CCN(C)CC3)ccc2[nH]c1=O` (stereo not drawn) [Co. No. 21] the value was 902 nM.

Consider `CCc1nc2cc(C(C(C)C)N3CCC(=O)CC3)ccc2[nH]c1=O` (stereo not drawn) [Co. No. 19], for which the IC50 was 757 nM. As for `CCc1cc2cc(C(OCCN(C)C)C3CCCCC3)ccc2[nH]c1=O` (stereo not drawn) [Co. No. 10], the IC50 is more than 1000 nM. For `CCc1nc2cc(C(C(C)C)N3CCC(c4n[nH]c5cc(F)ccc45)CC3)ccc2[nH]c1=O` (stereo not drawn) [Co. No. 26], the IC50 was 536 nM.

With `CCc1cc2cc(CCN3CCC(NCCOC)CC3)ccc2[nH]c1=O` [Co. No. 37], the IC50 is 853 nM. On to `CCc1cc2cc(C(c3cccs3)N3CCC(NCCOC)CC3)ccc2[nH]c1=O` (stereo not drawn) [Co. No. 12], for which the IC50 is 188 nM. For the molecule `CCc1cc2cc(C(CC(C)C)N3CCC(=O)CC3)ccc2[nH]c1=O` (stereo not drawn) [Co. No. 16], the IC50 is 230 nM. For the molecule `CCc1cc2cc(C(SCCN(C)C)C3CCCCC3)ccc2[nH]c1=O` (stereo not drawn) [Co. No. 20], the IC50 was 600 nM. On to `CCc1cc2cc(C(=O)CN3CCOCC3)ccc2[nH]c1=O` [Co. No. 36], for which the IC50 was 568 nM. Still for that read-out and setting: with `CCc1cc2cc(CN3CCN(Cc4ccccc4)CC3)ccc2[nH]c1=O` [Co. No. 7] the figure was 94.6 nM; with `CCc1cc2cc([C@@H](NCCN(C)C)C3CCCCC3)ccc2[nH]c1=O` [Co. No. 29], 841 nM; with `CCc1cc2cc([C@@H](C3CCCCC3)N3CCN(CCOC)CC3)ccc2[nH]c1=O` [Co. No. 30], 1280 nM.

For `CCc1cc2cc(C(C3CCCCC3)N3CCC(O)CC3)ccc2[nH]c1=O` (stereo not drawn) [Co. No. 34], the IC50 was 853 nM. Still for that read-out and setting: with `CCc1cc2cc(C(c3cccnc3)N3CCC(=O)CC3)ccc2[nH]c1=O` (stereo not drawn) [Co. No. 22] the figure was 198 nM; with `CCc1cc2cc(C(C3CC=CCC3)N3CCC(=O)CC3)ccc2[nH]c1=O` (stereo not drawn) [Co. No. 24], 277 nM.

The record behind these values is US7652014B2, “Substituted 6-cyclohexylalkyl substituted 2-quinolinones and 2-quinoxalinones as poly(ADP-ribose) polymerase inhibitors” (Janssen Pharmaceutica, priority 2003, dated 2010).
